The target in test [1] is T1, SARS-CoV-2 nsp3-mac1 (Severe acute respiratory syndrome coronavirus 2, UniProt P0DTD1). The test is described as follows: biochemical. In kind it is biochemical. To be noted: SARS-CoV-2 nsp3 macrodomain TR-FRET single point. Background: TR-FRET usually uses a lanthanide donor and a delayed reading to cut background.
Test [2] has as its target T1, SARS-CoV-2 nsp3-mac1. The test is described as follows: biochemical. Set-up: SARS-CoV-2 nsp3 macrodomain TR-FRET single point, per cent inhibition, n=2.
Where [3] appears, read: read-out: perc_inhibition_mean, batch_name=ASAP-0000406-001.
The mark [4] stands for this setting: read-out: perc_inhibition_mean, batch_name=ASAP-0000407-001.
The mark [5] stands for this setting: read-out: perc_inhibition_mean, batch_name=ASAP-0000408-001.
Setting [6] is: read-out: perc_inhibition_mean, batch_name=ASAP-0000409-001.
The mark [7] stands for this setting: read-out: perc_inhibition_mean, batch_name=ASAP-0000410-001.
[8] abbreviates: read-out: perc_inhibition_mean, batch_name=ASAP-0000411-001.
Setting [9] is: read-out: perc_inhibition_mean, batch_name=ASAP-0000412-001.
[10] abbreviates: read-out: perc_inhibition_mean, batch_name=ASAP-0000413-001.
Setting [11] is: read-out: perc_inhibition_mean, batch_name=ASAP-0000414-001.
Setting [12] is: read-out: perc_inhibition_mean, batch_name=ASAP-0000415-001.
Where [13] appears, read: read-out: perc_inhibition_mean, batch_name=ASAP-0000416-001.
[14] abbreviates: read-out: perc_inhibition_mean, batch_name=ASAP-0000417-001.
[15] abbreviates: read-out: perc_inhibition_mean, batch_name=ASAP-0000418-001.
[16] abbreviates: read-out: perc_inhibition_mean, batch_name=ASAP-0000419-001.

Like-named read-outs stand apart in the source and are kept apart here.

This passage reports perc_inhibition_mean and inhibition results from article doi:10.1101/2024.08.19.608619, “Discovery of potent SARS-CoV-2 nsp3 macrodomain inhibitors uncovers lack of translation to cellular antiviral response” (bioRxiv, 2024).

For `CCN1CCN(C(=O)c2cnn3ccc(C4CCN(C(=O)c5ccccc5)CC4)cc23)CC1=O` [ASAP-0000406], the perc_inhibition_mean at SARS-CoV-2 nsp3-mac1 [1] (concentration 49.75 uM) is listed as -8.634%. In addition, the perc_inhibition_mean on SARS-CoV-2 nsp3-mac1 [1] (concentration 99.5 uM) was -3.464%. Also, on SARS-CoV-2 nsp3-mac1 [2] (setting [3]), the inhibition at 49.75 µM is -8.63% and the inhibition at 99.5 µM was -3.46%.

On to `C[C@@H](NC(=O)c1cnn2ccc(C3CCN(C(=O)c4ccccc4)CC3)cc12)c1cc[nH]n1` [ASAP-0000407], for which the perc_inhibition_mean on SARS-CoV-2 nsp3-mac1 [1] (concentration 49.75 uM) is on record as -4.99%; on SARS-CoV-2 nsp3-mac1 [1] (concentration 99.5 uM), -2.773%. Moreover, on SARS-CoV-2 nsp3-mac1 [2] (setting [4]), the inhibition at 49.75 µM is -4.99%. In addition, on SARS-CoV-2 nsp3-mac1 [2] (setting [4]), the inhibition at 99.5 µM was -2.77%.

For `O=C(CCN(Cc1cccc(Cl)c1)C(=O)[C@@H]1CC1(F)F)N1CCNCC1` [ASAP-0000408], on SARS-CoV-2 nsp3-mac1 [1] (concentration 49.75 uM), the perc_inhibition_mean is reported as -2.073%. Further, on SARS-CoV-2 nsp3-mac1 [1] (concentration 99.5 uM), the perc_inhibition_mean is recorded as -3.764%. On SARS-CoV-2 nsp3-mac1 [2] (setting [5]), the inhibition at 49.75 µM is -2.07% and the inhibition at 99.5 µM was -3.76%.

For `O=C(CCN(Cc1cccc(Cl)c1)C(=O)c1ccc(O)cc1)N1CCNCC1` [ASAP-0000409], the perc_inhibition_mean at SARS-CoV-2 nsp3-mac1 [1] (concentration 49.75 uM) was -0.343%. Besides, the perc_inhibition_mean on SARS-CoV-2 nsp3-mac1 [1] (concentration 99.5 uM) was -1.632%. Also, on SARS-CoV-2 nsp3-mac1 [2] (setting [6]), the inhibition at 49.75 µM is -0.343% and the inhibition at 99.5 µM was -1.63%.

In the case of `Cc1nsc(N(C)C(=O)c2cnn3ccc(C4CCN(C(=O)c5ccccc5)CC4)cc23)n1` [ASAP-0000410], the figures for the perc_inhibition_mean at SARS-CoV-2 nsp3-mac1 [1] (concentration 49.75 uM) and at SARS-CoV-2 nsp3-mac1 [1] (concentration 99.5 uM) were -10.512% and -11.519%, respectively. Moreover, at SARS-CoV-2 nsp3-mac1 [2] (setting [7]), the inhibition at 49.75 µM was -10.5%. For the same molecule, at SARS-CoV-2 nsp3-mac1 [2] (setting [7]), the inhibition at 99.5 µM was -11.5%.

As to `O=C(c1ccccc1)N1CCC(c2ccn3ncc(C(=O)N4CCc5cccnc54)c3c2)CC1` [ASAP-0000411], the perc_inhibition_mean at SARS-CoV-2 nsp3-mac1 [1] (concentration 49.75 uM) was -4.67%. In addition, on SARS-CoV-2 nsp3-mac1 [1] (concentration 99.5 uM), the perc_inhibition_mean is -8.02%. Besides, at SARS-CoV-2 nsp3-mac1 [2] (setting [8]), the inhibition at 49.75 µM is -4.67% and the inhibition at 99.5 µM is -8.02%.

With `CN(C[C@H]1CCCN1)C(=O)c1cnn2ccc(C3CCN(C(=O)c4ccccc4)CC3)cc12` [ASAP-0000412], the perc_inhibition_mean at SARS-CoV-2 nsp3-mac1 [1] (concentration 49.75 uM) is on record as -7.471%. In addition, on SARS-CoV-2 nsp3-mac1 [1] (concentration 99.5 uM), the perc_inhibition_mean was -6.586%. Further, on SARS-CoV-2 nsp3-mac1 [2] (setting [9]), the inhibition at 49.75 µM is -7.47% and the inhibition at 99.5 µM is -6.59%.

In the case of `O=C1CC[C@@H](CNC(=O)c2cnn3ccc(C4CCN(C(=O)c5ccccc5)CC4)cc23)N1` [ASAP-0000413], the perc_inhibition_mean at SARS-CoV-2 nsp3-mac1 [1] (concentration 49.75 uM) was -2.317%; at SARS-CoV-2 nsp3-mac1 [1] (concentration 99.5 uM), -1.468%. For the same molecule, the inhibition at 49.75 µM at SARS-CoV-2 nsp3-mac1 [2] (setting [10]) was -2.32%. Besides, the inhibition at 99.5 µM on SARS-CoV-2 nsp3-mac1 [2] (setting [10]) was -1.47%.

For the molecule `Cc1[nH]ncc1CN(C)C(=O)c1cnn2ccc(C3CCN(C(=O)c4ccccc4)CC3)cc12` [ASAP-0000414], the perc_inhibition_mean on SARS-CoV-2 nsp3-mac1 [1] (concentration 49.75 uM) is reported as -1.138%. In addition, the perc_inhibition_mean on SARS-CoV-2 nsp3-mac1 [1] (concentration 99.5 uM) was 0.307%. In addition, on SARS-CoV-2 nsp3-mac1 [2] (setting [11]), the inhibition at 49.75 µM is -1.14% and the inhibition at 99.5 µM was 0.307%.

Take `O=C(c1cccnc1O)N1CCC(c2ccn3ncc(C(=O)N4CCCCC4)c3c2)CC1` [ASAP-0000415]: the perc_inhibition_mean at SARS-CoV-2 nsp3-mac1 [1] (concentration 49.75 uM) was -7.036%. Also, the perc_inhibition_mean at SARS-CoV-2 nsp3-mac1 [1] (concentration 99.5 uM) is listed as -3.94%. On SARS-CoV-2 nsp3-mac1 [2] (setting [12]), the inhibition at 49.75 µM is -7.04% and the inhibition at 99.5 µM is -3.94%.

As for `Cc1ccc(C(=O)N(CCC(=O)N2CCNCC2)Cc2cccc(Cl)c2)[nH]1` [ASAP-0000416], on SARS-CoV-2 nsp3-mac1 [1] (concentration 49.75 uM), the perc_inhibition_mean is recorded as -5.904%. For the same molecule, the perc_inhibition_mean on SARS-CoV-2 nsp3-mac1 [1] (concentration 99.5 uM) was -3.936%. Further, on SARS-CoV-2 nsp3-mac1 [2] (setting [13]), the inhibition at 49.75 µM was -5.9% and the inhibition at 99.5 µM was -3.94%.

Take `O=C(CCN(Cc1cccc(Cl)c1)C(=O)[C@@H]1C[C@@H](O)CN1)N1CCNCC1` [ASAP-0000417]: the perc_inhibition_mean on SARS-CoV-2 nsp3-mac1 [1] (concentration 49.75 uM) is listed as -3.538%. Also, on SARS-CoV-2 nsp3-mac1 [1] (concentration 99.5 uM), the perc_inhibition_mean worked out at 4.743%. Moreover, on SARS-CoV-2 nsp3-mac1 [2] (setting [14]), the inhibition at 49.75 µM is -3.54% and the inhibition at 99.5 µM worked out at 4.74%.

As for `Cn1ncnc1C(=O)N1CCC(c2ccn3ncc(C(=O)N4CCCCC4)c3c2)CC1` [ASAP-0000418], the values for the perc_inhibition_mean on SARS-CoV-2 nsp3-mac1 [1] (concentration 49.75 uM) and on SARS-CoV-2 nsp3-mac1 [1] (concentration 99.5 uM) were 2.38% and 20.346%, respectively. In addition, on SARS-CoV-2 nsp3-mac1 [2] (setting [15]), the inhibition at 49.75 µM came to 2.38%. In addition, the inhibition at 99.5 µM on SARS-CoV-2 nsp3-mac1 [2] (setting [15]) worked out at 20.3%.

Regarding `O=C(c1nc(=O)[nH][nH]1)N1CCC(c2ccn3ncc(C(=O)N4CCCCC4)c3c2)CC1` [ASAP-0000419], on SARS-CoV-2 nsp3-mac1 [1] (concentration 49.75 uM), the perc_inhibition_mean came out at 23.445%. Besides, on SARS-CoV-2 nsp3-mac1 [1] (concentration 99.5 uM), the perc_inhibition_mean was determined as 34.579%. On SARS-CoV-2 nsp3-mac1 [2] (setting [16]), the inhibition at 49.75 µM is 23.4% and the inhibition at 99.5 µM amounted to 34.6%.
